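Exposure lasted 48 hours, with cells grown in 96-well plates and compounds tested at five concentrations. GI50 is the concentration that inhibits growth by half. TGI denotes the concentration required for complete inhibition of growth.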
Key:
Test in all cases: NCI tumour cell line growth inhibition, 48 h
HCC-2998 colon = system: HCC-2998 colon
COLO 205 colon = system: COLO 205 colon
IGROV1 ovarian = system: IGROV1 ovarian
SF-268 CNS = system: SF-268 CNS
MOLT-4 leukemia = system: MOLT-4 leukemia
NCI-H460 lung = system: NCI-H460 lung
HOP-62 NSCLC = system: HOP-62 NSCLC
HL-60(TB) leukemia = system: HL-60(TB) leukemia
OVCAR-4 ovarian = system: OVCAR-4 ovarian
OVCAR-8 ovarian = system: OVCAR-8 ovarian
SF-539 CNS = system: SF-539 CNS
A498 renal = system: A498 renal
NCI-H522 lung = system: NCI-H522 lung
CCRF-CEM leukemia = system: CCRF-CEM leukemia
MDA-MB-231 breast = system: MDA-MB-231 breast
NCI-H23 lung = system: NCI-H23 lung
EKVX NSCLC = system: EKVX NSCLC
U251 CNS = system: U251 CNS
SN12C renal = system: SN12C renal
NCI/ADR-RES ovarian = system: NCI/ADR-RES ovarian
LOX IMVI melanoma = system: LOX IMVI melanoma
SK-OV-3 ovarian = system: SK-OV-3 ovarian
786-0 renal = system: 786-0 renal
UACC-257 melanoma = system: UACC-257 melanoma
HCT-116 colon = system: HCT-116 colon
SK-MEL-2 melanoma = system: SK-MEL-2 melanoma
SNB-19 CNS = system: SNB-19 CNS
HT29 colon = system: HT29 colon
NCI-H226 lung = system: NCI-H226 lung
MDA-MB-468 breast = system: MDA-MB-468 breast
M14 melanoma = system: M14 melanoma
TK-10 renal = system: TK-10 renal
BT-549 breast = system: BT-549 breast
HS 578T breast = system: HS 578T breast
SK-MEL-5 melanoma = system: SK-MEL-5 melanoma
MALME-3M melanoma = system: MALME-3M melanoma
UO-31 renal = system: UO-31 renal
A549 NSCLC = system: A549 NSCLC
SW-620 colon = system: SW-620 colon
RXF 393 renal = system: RXF 393 renal
MDA-MB-435 = system: MDA-MB-435
RPMI-8226 leukemia = system: RPMI-8226 leukemia
KM12 colon = system: KM12 colon
DU-145 prostate = system: DU-145 prostate
SR leukemia = system: SR leukemia
PC-3 prostate = system: PC-3 prostate
SNB-75 CNS = system: SNB-75 CNS
SF-295 CNS = system: SF-295 CNS
CAKI-1 renal = system: CAKI-1 renal
HOP-92 NSCLC = system: HOP-92 NSCLC
ACHN renal = system: ACHN renal
K-562 leukemia = system: K-562 leukemia
UACC-62 melanoma = system: UACC-62 melanoma
OVCAR-3 ovarian = system: OVCAR-3 ovarian
SK-MEL-28 melanoma = system: SK-MEL-28 melanoma
HCT-15 colon = system: HCT-15 colon
MCF7 breast = system: MCF7 breast
OVCAR-5 ovarian = system: OVCAR-5 ovarian

## Oc1ccc(F)c(Nc2nc(SCCN3CCOCC3)nc3c2cnn3CC(Cl)c2ccc(Br)cc2)c1 (stereo not drawn)
HCC-2998 colon
  GI50: 3.64 µM
  TGI: 15.4 µM
COLO 205 colon
  GI50: 17 µM
  TGI: 34.7 µM
IGROV1 ovarian
  GI50: 3.7 µM
  TGI: 22.7 µM
SF-268 CNS
  GI50: 6.23 µM
  TGI: > 100 µM
MOLT-4 leukemia
  GI50: 2.83 µM
  TGI: 14.6 µM
NCI-H460 lung
  GI50: 4.38 µM
  TGI: 65.4 µM
HOP-62 NSCLC
  GI50: 5.08 µM
  TGI: 39 µM
HL-60(TB) leukemia
  GI50: 3.42 µM
  TGI: 33.6 µM
OVCAR-4 ovarian
  GI50: 6.92 µM
  TGI: > 100 µM
OVCAR-8 ovarian
  GI50: 4.27 µM
  TGI: 56.5 µM
SF-539 CNS
  GI50: 4.33 µM
  TGI: 16.3 µM
A498 renal
  GI50: 14.5 µM
  TGI: 45 µM
NCI-H522 lung
  GI50: 4.6 µM
  TGI: 27.9 µM
CCRF-CEM leukemia
  GI50: 3.67 µM
  TGI: 54 µM
MDA-MB-231 breast
  GI50: 2.8 µM
  TGI: 9.68 µM
NCI-H23 lung
  GI50: 4.74 µM
  TGI: 18.1 µM
EKVX NSCLC
  GI50: 4.44 µM
  TGI: > 100 µM
U251 CNS
  GI50: 5.19 µM
  TGI: 18.5 µM
SN12C renal
  GI50: 3.37 µM
  TGI: 24.9 µM
NCI/ADR-RES ovarian
  GI50: 3.35 µM
  TGI: 29.1 µM
LOX IMVI melanoma
  GI50: 2.56 µM
  TGI: 10.5 µM
SK-OV-3 ovarian
  GI50: 11 µM
  TGI: 84.6 µM
786-0 renal
  GI50: 5.02 µM
  TGI: 75.2 µM
UACC-257 melanoma
  GI50: 5.48 µM
  TGI: 23 µM
HCT-116 colon
  GI50: 3.29 µM
  TGI: 16.2 µM
SK-MEL-2 melanoma
  GI50: 10.2 µM
  TGI: 22.4 µM
SNB-19 CNS
  GI50: 9.02 µM
  TGI: > 100 µM
HT29 colon
  GI50: 3.33 µM
  TGI: 12.8 µM
NCI-H226 lung
  GI50: 3.82 µM
  TGI: 43.7 µM
MDA-MB-468 breast
  GI50: 2.44 µM
  TGI: 9.54 µM
M14 melanoma
  GI50: 4.18 µM
  TGI: 16.4 µM
TK-10 renal
  GI50: 21.1 µM
  TGI: 62.5 µM
BT-549 breast
  GI50: 7.46 µM
  TGI: 22.7 µM
HS 578T breast
  GI50: 2 µM
  TGI: 8.19 µM
SK-MEL-5 melanoma
  GI50: 4.05 µM
  TGI: 15.7 µM
MALME-3M melanoma
  GI50: 2.86 µM
  TGI: 11.5 µM
UO-31 renal
  GI50: 3.15 µM
  TGI: 55 µM
A549 NSCLC
  GI50: 4.06 µM
  TGI: > 100 µM
SW-620 colon
  GI50: 7.38 µM
  TGI: > 100 µM
RXF 393 renal
  GI50: 1.36 µM
  TGI: 4.34 µM
MDA-MB-435
  GI50: 6.74 µM
  TGI: 24.3 µM
RPMI-8226 leukemia
  GI50: 4.31 µM
  TGI: 25.7 µM
KM12 colon
  GI50: 5.22 µM
  TGI: > 100 µM
DU-145 prostate
  GI50: 8.03 µM
  TGI: > 100 µM
SR leukemia
  GI50: 1.61 µM
  TGI: > 100 µM
PC-3 prostate
  GI50: 4.51 µM
  TGI: > 100 µM
SNB-75 CNS
  GI50: 3.23 µM
  TGI: 22.3 µM
SF-295 CNS
  GI50: 2.66 µM
  TGI: 11.1 µM
CAKI-1 renal
  GI50: 9.49 µM
  TGI: > 100 µM
HOP-92 NSCLC
  GI50: 4.53 µM
  TGI: > 100 µM
ACHN renal
  GI50: 3.48 µM
  TGI: 45.1 µM
K-562 leukemia
  GI50: 1.69 µM
  TGI: 14.5 µM
UACC-62 melanoma
  GI50: 3.98 µM
  TGI: 15.6 µM
OVCAR-3 ovarian
  GI50: 8.88 µM
  TGI: > 100 µM
SK-MEL-28 melanoma
  GI50: 4.44 µM
  TGI: 24.3 µM
HCT-15 colon
  GI50: 2.72 µM
  TGI: 20.5 µM
MCF7 breast
  GI50: 2.87 µM
  TGI: 40.2 µM
OVCAR-5 ovarian
  GI50: 6.62 µM
  TGI: 39.5 µM

## CC(F)(F)c1cc(F)ccc1-c1sc2cc(O)ccc2c1Oc1ccc(/C=C/C(=O)O)cc1
MDA-MB-468 breast
  GI50: 5.94 µM
  TGI: 43.4 µM
